Experimental findings from US20050096381A1, “Derivatives of isoflavones” (YEDA & MEDICAL RESEARCH, priority 2002, published 2005) are described below.

In experiment [1] the target is T1, Recombinant ERα protein (Homo sapiens, UniProt P03372).
T1 sequence (P03372 1-595): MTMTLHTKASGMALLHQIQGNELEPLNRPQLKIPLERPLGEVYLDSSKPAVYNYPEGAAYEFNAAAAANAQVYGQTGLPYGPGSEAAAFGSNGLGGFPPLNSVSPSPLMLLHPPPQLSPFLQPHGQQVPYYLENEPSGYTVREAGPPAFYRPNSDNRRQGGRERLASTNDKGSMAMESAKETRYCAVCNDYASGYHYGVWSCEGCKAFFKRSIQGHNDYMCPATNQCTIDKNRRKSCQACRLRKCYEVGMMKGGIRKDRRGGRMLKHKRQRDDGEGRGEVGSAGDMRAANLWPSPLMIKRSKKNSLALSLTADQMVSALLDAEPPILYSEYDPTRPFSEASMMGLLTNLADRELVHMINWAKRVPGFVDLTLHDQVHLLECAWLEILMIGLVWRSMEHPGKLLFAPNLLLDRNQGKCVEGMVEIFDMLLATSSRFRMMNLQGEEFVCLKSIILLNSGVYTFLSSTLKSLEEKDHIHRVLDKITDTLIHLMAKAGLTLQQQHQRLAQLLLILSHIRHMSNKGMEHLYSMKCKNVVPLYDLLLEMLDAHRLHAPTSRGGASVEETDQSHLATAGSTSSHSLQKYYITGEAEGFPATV
Briefly: Estrogen receptor-binding assay, [3H]-17β-estradiol displacement, ERα. To be noted: result in words. The method, then: (§1) Biotinylated anti-ER antibody (α or β, prepared as described in Strasburger C J & Kohen F 1990 Methods Enzymol. 184:481-496), 100 ng/well in 100 μl of binding buffer, was added to each well, and the reaction mixtures were incubated with shaking for 2 h and 30 min at room temperature. The reaction mixtures were then decanted, and each well was washed once with binding buffer. Dilute sodium hydroxide (0.1 N, 300 μl) was added to each well. After shaking for 20 min, an aliquot (200 μl) was removed from each well and added to a vial containing scintillation fluid. The vials were then counted for radioactivity in a beta scintillation counter.

The target in experiment [2] is Recombinant ERβ protein (Homo sapiens, UniProt Q92731). Nature of the experiment: Estrogen receptor-binding assay, [3H]-17β-estradiol displacement, ERβ. The note with it: for binding activity to ERβ: result in words. How it is done: as §1
Experiment [3] concerns creatine kinase (CK) specific activity, an estrogen responsive enzyme. Nature of the experiment: Stimulation of the specific activity of creatine kinase (CK) in rat tissues in vivo. To be noted: for CK specific activity (experimental/control), aorta: Ao; for CK specific activity (experimental/control), aorta / CK specific activity (experimental/control), diaphysis / CK specific activity (experimental/control), epiphysis / CK specific activity (experimental/control), left ventricle of the heart / CK specific activity (experimental/control), pituitary / CK specific activity (experimental/control), uterus: immature female rats, i.p., 24 h, mean ± SD, n = 5, control = 1.0; for CK specific activity (experimental/control), diaphysis: Dia; for CK specific activity (experimental/control), epiphysis: Epi; for CK specific activity (experimental/control), left ventricle of the heart: LV; for CK specific activity (experimental/control), pituitary: Pi; for CK specific activity (experimental/control), uterus: Ut; for effect on CK specific activity in rat tissues (in words): uterus, pituitary, epiphysis, diaphysis, aorta, left ventricle. The method, then:
The ability of the isoflavone derivatives to bind estrogen receptor and/or to modulate estrogen receptor response may be examined by any assay known in the art. A convenient assay described herein as a non-limiting example utilizes the specific activity of creatine kinase (CK), an estrogen responsive enzyme, as a parameter for the estrogen-like activity of the isoflavone derivatives of the present invention.
The rats were killed by decapitation 24 h after i.p. injection. The various organs were removed and stored at −20° C. until processed for CK activity as previously described (Somjen D. et al. 1998 Hypertension 32:39-45).

In experiment [4] the test system is E304 endothelial cells (expressing mainly ERα). Nature of the experiment: DNA synthesis by [3H]-thymidine incorporation in E304 cells. In kind it is cell-based, human. The method, then:
E304 cells, expressing mainly ERα, an endothelial cell line derived from a human umbilical vein, were purchased from American Type Culture Collection (ATCC), Rockville, Md., and grown in medium 199 containing 10% FCS, glutamine and antibiotics.
(§2) Assessment of DNA synthesis was performed by [^3H]-thymidine incorporation in these cells. Cells were grown until subconfluence and then treated with various hormones or agents as indicated. Forty-eight hours later, [^3H] thymidine was added for two hours. Cells were then treated with 10% ice-cold trichloroacetic (TCA) for 5 min and washed twice with 5% TCA and then with cold ethanol. The cellular layer was dissolved in 0.3 ml of 0.3M NaOH, samples were taken and [^3H] thymidine incorporation into DNA was determined. The concentration of hormone to produce half-maximal induction (EC50) or inhibition (IC50) was calculated from the dose response curves.
(§3) In the second phase the cytotoxicity of isoflavone-daunomycin conjugates was tested after 48 h of incubation in normal cells [VSMC, E304, non transformed enterocytes (TEC)] and malignant cells [human adrenocortical carcinoma (NCI-H295R), human colon cancer cells (colo320) and c-K-ras transformed rat enterocytes (R1)] using uptake of [^3H]-thymidine as a proliferation marker.
For orientation: Dividing cells build labelled thymidine or BrdU into new DNA.

Experiment [5] relates to human colon cancer cells (colo320). Briefly: DNA synthesis by [3H]-thymidine incorporation in colo320 cells. The class given is cell-based. The method, then:
These cells were purchased from ATTC (Rockville, Md.) and grown in RPMI medium containing 20 mM HEPES and 10% fetal calf serum.
as §2, §3

Experiment [6] concerns human adrenocortical carcinoma cells (NCI-H295R). Nature of the experiment: cells. The class given is cell-based. The note with it: for IC50: read-out: concentration required for 50% inhibition of DNA synthesis (IC50), NCI-H295R. The method, then:
These cells were purchased from ATTC (Rockville, Md.) and grown in Dulbecco's modified Eagle's medium containing antibiotics.
as §2, §3

Experiment [7] relates to human vascular smooth muscle cells (VSMC), expressing mainly ERβ. Nature of the experiment: cells. In kind it is cell-based. How it is done: Human umbilical artery smooth muscle cells, expressing mainly ERβ, were prepared as previously described with minor modifications (Somjen D. et al. 1998 Hypertension 32:39-45). In brief, umbilical cords were collected shortly after delivery. The umbilical arteries were isolated by dissection, cleaned of blood and adventitia and then cut into tiny slices (1-3 mm). The segments were kept in culture in medium 199 containing 20% FCS, glutamine and antibiotics. […] Cells were fed twice a week and, upon confluence, trypsinized and transferred to 24-well dishes. Cells were used only at passages 1-3 when expression of smooth muscle actin was clearly demonstrable.
as §2, §3

Experiment [8] deals with nontransformed rat enterocytes (IEC). Nature of the experiment: cells. In kind it is cell-based. The note with it: read-out: concentration required for 50% inhibition of DNA synthesis (IC50), IEC. The method, then: (§4) Cell lines were obtained from Prof. N. Arber, Ichilov Hospital, Tel-Aviv, Israel and grown as described previously (Arber N et al. 1996 Oncogene 12:1903-1908).
as §2, §3

In experiment [9] the test system is c-K-ras transformed rat enterocytes (R1). Briefly: cells. In kind it is cell-based. The note with it: read-out: concentration required for 50% inhibition of DNA synthesis (IC50), R1. The method, then:
as §4, §2, §3

Setting [10] is: 48 h incubation, read-out: concentration required for 50% inhibition of DNA synthesis (IC50), E304.
[11] abbreviates: 48 h incubation, [3H]-thymidine.
[12] abbreviates: 48 h incubation, [3H]-thymidine, read-out: concentration required for 50% inhibition of DNA synthesis (IC50), VSMC.

“Also recorded” adds a separate entry of the source. Where two headings read alike, the source gives them in different places.

Sequence of Recombinant ERβ protein (Q92731 whole entry, species assumed): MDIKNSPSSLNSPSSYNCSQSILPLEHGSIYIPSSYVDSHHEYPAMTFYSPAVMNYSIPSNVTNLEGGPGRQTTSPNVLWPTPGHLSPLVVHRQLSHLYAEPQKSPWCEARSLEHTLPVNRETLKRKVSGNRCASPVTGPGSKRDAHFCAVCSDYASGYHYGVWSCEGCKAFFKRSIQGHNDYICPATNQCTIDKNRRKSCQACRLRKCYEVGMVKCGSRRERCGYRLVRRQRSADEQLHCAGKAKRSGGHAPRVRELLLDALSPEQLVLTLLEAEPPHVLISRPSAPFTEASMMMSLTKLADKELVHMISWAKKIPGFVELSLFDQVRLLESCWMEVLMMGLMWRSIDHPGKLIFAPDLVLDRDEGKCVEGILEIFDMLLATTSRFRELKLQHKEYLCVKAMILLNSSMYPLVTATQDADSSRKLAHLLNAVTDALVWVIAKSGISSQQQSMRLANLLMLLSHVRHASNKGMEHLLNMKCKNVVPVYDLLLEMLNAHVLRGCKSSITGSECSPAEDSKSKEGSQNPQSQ

In the case of `O=c1c(-c2ccc(O)cc2)coc2cc(O)ccc12` [Daidzein, reference compound], in experiment [1], the “binding activity to ERα” value is recorded as “did not show any significant binding activity”. For the same compound, in experiment [2], the “binding activity to ERβ” value was “did not show any significant binding activity”.
Regarding `C[C@]12CC[C@@H]3c4ccc(O)cc4CC[C@H]3[C@@H]1CC[C@@H]2O` [Estradiol, 17β-estradiol], in [3], the “CK specific activity (experimental/control), aorta” value was 2.43 ± 0.06; the “CK specific activity (experimental/control), diaphysis” value was 2.75 ± 0.23; the “CK specific activity (experimental/control), epiphysis” value is 1.85 ± 0.16; the “CK specific activity (experimental/control), left ventricle of the heart” value was determined as 1.53 ± 0.13. For the same compound, in experiment [3], the “CK specific activity (experimental/control), pituitary” value was 1.45 ± 0.05; the “CK specific activity (experimental/control), uterus” value worked out at 1.49 ± 0.13; the “effect on CK specific activity in rat tissues (in words)” value (from here on “effect on CK specific activity”) is reported as “stimulated the CK specific activity in all the rat tissues”.
In the case of “6-carboxymethyl biochanin A daunomycin conjugate [Cbio-daunomycin]”, the IC50 in experiment [4] (setting [10]) is 5 nM; in experiment [5] (48 h incubation, [3H]-thymidine, read-out: concentration required for 50% inhibition of DNA synthesis (IC50), Colo320), 40 nM; in experiment [6] (setting [11]), 60 nM.
Take `COc1cccc2c1C(=O)c1c(O)c3c(c(O)c1C2=O)C[C@@](O)(C(C)=O)C[C@@H]3O[C@H]1C[C@H](N)[C@H](O)[C@H](C)O1` [Daunomycin, daunomycin, reference compound]: the IC50 was determined as 300 nM in experiment [4] (setting [10]); 800 nM in experiment [4] (read-out: concentration required for 50% inhibition of DNA synthesis (IC50), E304, 48 h incubation); 700 nM in experiment [7] (Homo sapiens, VSMC, read-out: concentration required for 50% inhibition of DNA synthesis (IC50), VSMC, 48 h incubation, [3H]-thymidine); 650 nM in experiment [7] (read-out: concentration required for 50% inhibition of DNA synthesis (IC50), VSMC, 48 h incubation, [3H]-thymidine); 300 nM in experiment [5] (Homo sapiens, COLO 320, read-out: concentration required for 50% inhibition of DNA synthesis (IC50), Colo320); 550 nM in [8] (Rattus norvegicus). Moreover, in experiment [9] (Rattus norvegicus), the IC50 turned out to be 850 nM.
`O=C(O)COc1ccc2c(=O)c(-c3ccc(O)cc3)coc2c1` [7-(O)-carboxymethyl daidzein]: the “binding activity to ERα” value in experiment [1] was “did not show any significant binding activity”. Further, the “binding activity to ERβ” value in experiment [2] is recorded as “did not show any significant binding activity”.
With “6-carboxymethyl genistein daunomycin conjugate [Cgen-daunomycin]”, the IC50 in [4] (setting [10]) came out at 60 nM; in [7] (48 h incubation, [3H]-thymidine, listed as 6-carboxymethyl genistein daunomycin conjugate, read-out: concentration required for 50% inhibition of DNA synthesis (IC50), VSMC) it was 20 nM; in [7] (setting [12]) it was 12 nM; in experiment [6], 16 nM; in experiment [8], 2000 nM; in experiment [9] it was 70 nM.
Take `O=C(O)Cc1c(O)cc2occ(-c3ccc(O)cc3)c(=O)c2c1O` [6-carboxymethyl genistein]: in experiment [3], the “effect on CK specific activity” value is reported as “caused an increase in CK activity in rat tissues”. The EC50 in experiment [7] (Homo sapiens, VSMC, [3H]-thymidine incorporation, read-out: induced proliferation, EC50 in VSMC) is 3 nM; in experiment [6] (Homo sapiens, NCI-H295R, [3H]-thymidine incorporation, read-out: induced proliferation, EC50 in NCI-H295R), 2 nM. Further, in experiment [2] (recombinant ERβ, [3H]-17β-estradiol 3 nM, read-out: inhibition of binding of [3H]-estradiol to ERβ, relative binding affinity values (IC50)), the IC50 worked out at 200 nM.
As to `COc1ccc(-c2coc3cc(O)c(CC(=O)O)c(O)c3c2=O)cc1` [6-carboxymethyl biochanin A], in experiment [3], the “CK specific activity (experimental/control), aorta” value worked out at 1.63 ± 0.11; the “CK specific activity (experimental/control), diaphysis” value worked out at 1.51 ± 0.05; the “CK specific activity (experimental/control), epiphysis” value is given as 1.61 ± 0.17; the “CK specific activity (experimental/control), left ventricle of the heart” value was 1.91 ± 0.16. Moreover, in experiment [3], the “CK specific activity (experimental/control), pituitary” value stood at 1.54 ± 0.05; the “CK specific activity (experimental/control), uterus” value was determined as 0.89 ± 0.12; the “effect on CK specific activity” value is on record as “increased the CK specific activity in all the rat tissues with the exception of the uterus; also recorded: caused an increase in CK activity in rat tissues”. Also, in experiment [3] (rats treated with E2 plus compound), the “stimulatory response of E2 to CK specific activity on combination with E2 (in words)” value is “inhibited in all the tissues”. Also, the “binding activity to ERα” value in experiment [1] is “did not show any significant binding activity”. For the same compound, in experiment [2], the “binding activity to ERβ” value is listed as “did not show any significant binding activity”.
Consider “7-(O)-carboxymethyl daidzein-daunomycin conjugate [Cdaid-daunomycin]”, for which the IC50 in experiment [7] (setting [12]) was found to be 22 nM; in experiment [6] (48 h incubation, [3H]-thymidine, listed as 7-(O)-carboxymethyl daidzein-daunomycin conjugate) it was 7 nM; in [6] (setting [11]), 6 nM.
In the case of `COc1ccc(-c2coc3cc(O)cc(O)c3c2=O)cc1` [Biochanin A, biochanin A], in [3], the “CK specific activity (experimental/control), aorta” value is 2 ± 0.18; the “CK specific activity (experimental/control), diaphysis” value amounted to 1.9 ± 0.23; the “CK specific activity (experimental/control), epiphysis” value is recorded as 2.38 ± 0.18; the “CK specific activity (experimental/control), left ventricle of the heart” value turned out to be 1.42 ± 0.04. Besides, in [3], the “CK specific activity (experimental/control), pituitary” value is reported as 1.58 ± 0.05; the “CK specific activity (experimental/control), uterus” value turned out to be 1.42 ± 0.13; the “effect on CK specific activity” value is listed as “stimulated the CK specific activity in all the rat tissues”. In addition, the “binding activity to ERα” value in experiment [1] is “did not show any significant binding activity”. The “binding activity to ERβ” value in experiment [2] is “did not show any significant binding activity”.
